# Measurements published in patent US11041205B2, “Molecular targets for ALS and related disorders” (Northwestern University, priority 2010, dated 2021).
# Entries after “also recorded” stand apart in the source; their conditions may differ. Peptide text beside a SMILES is read from it. * marks the point of attachment. Cbz = O=C(OCc1ccccc1)*
# System: Ub^G76V-GFP reporter (ubiquitin-proteasome system) in transiently transfected cells
# Test: UPS reporter assay (Ub^G76V-GFP, flow cytometry), functionality control with proteasomal inhibitor
# Type: cell-based
# Conditions: 5 μM MG-132, 24 hours
# Procedure: FIGS. 12A-12C show flow-cytometric analysis of untransfected cells (12A), Ub^G76V-GFP transfected cells (12B), and Ub^G76V-GFP transfected cells treated for 24 hours with 5 μM of the proteasomal inhibitor, MG-132 (12C).
# Experiments were conducted during development of embodiments of the present invention to investigate the functional consequences of the mutant ubiquilin2 in protein degradation through the ubiquitin-proteasome system (UPS) was investigated. The UPS reporter substrate Ubiquitin^G76V-Green Fluorescent Protein (Ub^G76V-GFP) was used to test the effects of mutant ubiquilin2 on the ubiquitin-mediated protein degradation. Two mutations at two different sites were tested (P497H and P506T) using the Ub^G76V-GFP reporter system. […]
# SH-SYSY and Neuro2a cells were grown in 24-well plates and double-transfected with the UPS reporter (20) vector containing UbG76V-GFP (Addgene plasmid #11941) and a dual expression vector containing DsRed2 with either wild-type or mutant Ubiquilin 2. […] All flow cytometric data were collected and analyzed using a MoFlo cell sorter and Summit software (DakoCytomation, Fort Collins, Colo.). […] At least 500 such events were recorded. […]
compound,measurement,value
CC(C)C[C@@H](C=O)NC(=O)[C@H](CC(C)C)NC(=O)[C@H](CC(C)C)NC(=O)OCc1ccccc1 [MG-132] (Cbz-Leu-Leu-Leu-aldehyde),GFP fluorescence (FL1) intensity / accumulation of the Ub^G76V-GFP signal,marked increase in GFP fluorescence (FL1) intensity; also recorded: remarkable accumulation of the Ub^G76V-GFP signal
